Assay results: ChEMBL document CHEMBL5143702, “Discovery of novel bis-evodiamine derivatives with potent antitumor activity” (Bioorg Med Chem, 2022)
Values after ≈ are worked out from the molar mass of the structure shown. Active and inactive are the calls of the source. The rule behind the calls is not given here.

How the values were obtained:
A549 = test: In-vitro antitumor activity against human A549 cells incubated for 72 hrs by CCK8 assay; assay type: functional, cell-based; settings: A549, 72 h
MCF7 = test: In-vitro antitumor activity against human MCF7 cells incubated for 72 hrs by CCK8 assay; assay type: functional, cell-based; settings: MCF7, 72 h
[1] = In-vitro cytotoxic activity against human HUVEC cells incubated for 72 hrs by CCK8 assay; assay type: toxicity, cell-based
HCT-116 [2] = test: In-vitro antitumor activity against human HCT-116 cells incubated for 72 hrs by CCK8 assay; assay type: functional, cell-based; settings: HCT-116, 72 h
HCT-116 [3] = test: Inhibition of cell migration of human HCT-116 cells at 0.25 uM incubated for 24 hrs by wound healing assay; assay type: functional, cell-based
HCT-116 [4] = test: Inhibition of cell colony formation of human HCT-116 cells at 0.025 to 0.5 uM by clonogenicity assay; assay type: functional, cell-based; settings: dose 0.025-0.5 µM
HCT-116 [5] = test: Induction of cell cycle arrest in human HCT-116 cells assessed as accumulation at G2/M phase at 0.25 uM incubated for 48 hrs by flow cytometry (reference value: 32.63%); assay type: functional
HCT-116 [6] = test: Induction of cell cycle arrest in human HCT-116 cells assessed as accumulation at G2/M phase at 0.01 uM incubated for 48 hrs by flow cytometry (reference value: 32.63%); assay type: functional
HCT-116 [7] = test: Induction of cell cycle arrest in human HCT-116 cells assessed as accumulation at G2/M phase at 0.05 uM incubated for 48 hrs by flow cytometry (reference value: 32.63%); assay type: functional
HCT-116 [8] = test: Induction of cell cycle arrest in human HCT-116 cells assessed as accumulation at G1 phase at 0.05 uM incubated for 48 hrs by flow cytometry (reference value: 33.16%); assay type: functional
HCT-116 [9] = test: Induction of apoptosis in human HCT-116 cells at 0.05 uM incubated for 48 hrs by Annexin V/PI staining based flow cytometry (reference value: 3.86%); assay type: functional
HCT-116 [10] = test: Induction of apoptosis in human HCT-116 cells assessed as increase in p53 protein expression at 0.05 to 1.5 uM incubated for 24 hrs by Western blot analysis; assay type: functional, cell-based; settings: dose 0.05-1.5 µM
HCT-116 [11] = test: Inhibition of cell migration of human HCT-116 cells at 0.01 to 0.15 uM incubated for 24 hrs by wound healing assay; assay type: functional, cell-based; settings: dose 0.01-0.15 µM
HCT-116 [12] = test: Induction of apoptosis in human HCT-116 cells assessed as reduction in p53 protein expression at 1.5 uM incubated for 24 hrs by Western blot analysis; assay type: functional, cell-based
HCT-116 [13] = test: Induction of cell cycle arrest in human HCT-116 cells assessed as reduction in Cdc25c expression at 0.05 to 1.5 uM incubated for 24 hrs by Western blot analysis; assay type: functional, cell-based; settings: dose 0.05-1.5 µM
HCT-116 [14] = test: Induction of apoptosis in human HCT-116 cells at 0.15 uM incubated for 48 hrs by Annexin V/PI staining based flow cytometry (reference value: 3.86%); assay type: functional
HCT-116 [15] = test: Induction of apoptosis in human HCT-116 cells at 0.25 uM incubated for 48 hrs by Annexin V/PI staining based flow cytometry (reference value: 3.86%); assay type: functional
HCT-116 [16] = test: Induction of cell cycle arrest in human HCT-116 cells assessed as accumulation at S phase at 0.01 uM incubated for 48 hrs by flow cytometry (reference value: 34.21%); assay type: functional
HCT-116 [17] = test: Induction of apoptosis in human HCT-116 cells assessed as increase in cytochrome C protein expression at 0.05 to 1.5 uM incubated for 24 hrs by Western blot analysis; assay type: functional, cell-based; settings: dose 0.05-1.5 µM
HCT-116 [18] = test: Induction of apoptosis in human HCT-116 cells assessed as reduction in cytochrome C protein expression at 1.5 uM incubated for 24 hrs by Western blot analysis; assay type: functional, cell-based
HCT-116 [19] = test: Induction of apoptosis in human HCT-116 cells at 0.05 to 0.25 uM incubated for 48 hrs by Annexin V/PI staining based flow cytometry; assay type: functional, cell-based; settings: dose 0.05-0.25 µM, DDE = dose-dependent effect
HCT-116 [20] = test: Induction of cell cycle arrest in human HCT-116 cells assessed as accumulation at G1 phase at 0.01 uM incubated for 48 hrs by flow cytometry (reference value: 33.16%); assay type: functional
HCT-116 [21] = test: Inhibition of cell proliferation of human HCT-116 cells at 0.01 to 10 uM incubated for 48 hrs by RTCA assay; assay type: functional; settings: dose 0.01-10 µM
HCT-116 [22] = test: Induction of cell cycle arrest in human HCT-116 cells assessed as increase in Cyclin B1 expression at 0.05 to 1.5 uM incubated for 24 hrs by Western blot analysis; assay type: functional, cell-based; settings: dose 0.05-1.5 µM
HCT-116 [23] = test: Induction of cell cycle arrest in human HCT-116 cells assessed as accumulation at S phase at 0.05 uM incubated for 48 hrs by flow cytometry (reference value: 34.21%); assay type: functional
HCT-116 [24] = test: Induction of apoptosis in human HCT-116 cells assessed as decrease in Bcl-2 protein expression at 0.05 to 1.5 uM incubated for 24 hrs by Western blot analysis; assay type: functional, cell-based; settings: dose 0.05-1.5 µM
HCT-116 [25] = test: Induction of apoptosis in human HCT-116 cells at 0.1 uM incubated for 48 hrs by Annexin V/PI staining based flow cytometry (reference value: 3.86%); assay type: functional
HCT-116 [26] = test: Induction of apoptosis in human HCT-116 cells assessed as increase in Bax protein expression at 0.05 to 1.5 uM incubated for 24 hrs by Western blot analysis; assay type: functional, cell-based; settings: dose 0.05-1.5 µM
HCT-116 [27] = test: Induction of cell cycle arrest in human HCT-116 cells assessed as accumulation at S phase at 0.25 uM incubated for 48 hrs by flow cytometry (reference value: 34.21%); assay type: functional
HCT-116 [28] = test: Induction of cell cycle arrest in human HCT-116 cells assessed as accumulation at G1 phase at 0.25 uM incubated for 48 hrs by flow cytometry (reference value: 33.16%); assay type: functional

Compound `CN1c2ccc(F)cc2C(=O)N2CCc3c([nH]c4ccc(OC(=O)CCC(=O)Oc5ccc6[nH]c7c(c6c5)CCN5C(=O)c6cc(F)ccc6N(C)C75)cc34)C21` (configuration not stated) has an IC50 (A549) of 680 nM, an IC50 (MCF7) of 890 nM and an IC50 at 72 h [1] of 210 nM. The IC50 (HCT-116 [2]) was 32 nM.

Work on `CN1c2ccc(F)cc2C(=O)N2CCc3c([nH]c4ccc(OC(=O)CCSSCCC(=O)Oc5ccc6[nH]c7c(c6c5)CCN5C(=O)c6cc(F)ccc6N(C)C75)cc34)C21` (configuration not stated) yielded an IC50 (A549) of 610 nM, an IC50 (MCF7) of 410 nM and an IC50 at 72 h [1] of 130 nM. It also gave an IC50 (HCT-116 [2]) of 170 nM.

Work on `CN1c2ccc(F)cc2C(=O)N2CCc3c([nH]c4ccc(O)cc34)C21` (configuration not stated) yielded an IC50 (A549) of 460 nM, an IC50 (MCF7) of 44 nM and an IC50 at 72 h [1] of 260 nM. For the same compound, the IC50 (HCT-116 [2]) was 73 nM and the inhibition (HCT-116 [3]) was “Active”.

For `CC[C@@]1(O)C(=O)OCc2c1cc1n(c2=O)Cc2cc3ccccc3nc2-1` [CAMPTOTHECIN], the IC50 (A549) was 74 nM, the IC50 (MCF7) was 21 nM and the IC50 at 72 h [1] was 12 nM. The IC50 (HCT-116 [2]) was 40 nM.

With `CN1c2ccc(F)cc2C(=O)N2CCc3c([nH]c4ccc(OC(=O)CCCC(=O)Oc5ccc6[nH]c7c(c6c5)CCN5C(=O)c6cc(F)ccc6N(C)C75)cc34)C21` (configuration not stated) the IC50 (A549) was 730 nM, the inhibition (HCT-116 [4]) was “Active” and the Activity (HCT-116 [5]) was 65.23%. The Activity (HCT-116 [6]) was 30.43%, the IC50 (MCF7) was 200 nM and the Activity (HCT-116 [7]) was 59.8%. The Activity (HCT-116 [8]) was 40.2%, the Activity (HCT-116 [9]) was 47.78% and the Activity (HCT-116 [10]) was “Active”. For the same compound, the inhibition (HCT-116 [11]) was “Active”, the Activity (HCT-116 [12]) was “Active” and the Activity (HCT-116 [13]) was “Active”. The Activity (HCT-116 [14]) was 58.73%, the Activity (HCT-116 [15]) was 75.11% and the Activity (HCT-116 [16]) was 26.96%. For the same compound, the Activity (HCT-116 [17]) was “Active”, the IC50 at 72 h [1] was 580 nM and the Activity (HCT-116 [18]) was “Active”. For the same compound, the Activity (HCT-116 [19]) was “Dde”, the Activity (HCT-116 [20]) was 42.61% and the MIC (HCT-116 [21]) was 0.01 µM (≈ 7.71 ng/mL). For the same compound, the inhibition (HCT-116 [21]; DDE = dose-dependent effect) was “Dde”, the IC50 (HCT-116 [2]) was 32 nM and the Activity (HCT-116 [22]) was “Active”. For the same compound, the Activity (HCT-116 [23]) was 0%, the Activity (HCT-116 [24]) was “Active” and the Activity (HCT-116 [25]) was 54.32%. The Activity (HCT-116 [26]) was “Active”, the Activity (HCT-116 [27]) was 0% and the Activity (HCT-116 [28]) was 34.77%.
